The test system of experiment [1] is A. nosocomialis strain (1461911 IHMA). Kind of experiment: Pneumonic mouse model, colistin resistant strain. The class given is in vivo, Acinetobacter nosocomialis. To be noted: BALB/c mice, 3 per group, one intramuscular dose 24 hours after inoculation, combination groups stated together for both strains (6 mice). How it is done: One colistin susceptible (MIC 1 mg/L) A. nosocomialis strain (1204194 IHMA) and one colistin resistant (MIC 4 mg/L) A. nosocomialis strain (1461911 IHMA) are used. […] Fresh brain heart infusion broth (Merck, Darmstadt, Germany) bacterial cultures, in an aerobic atmosphere in the logarithmic growth phase (4-5 hours) at 37° C., are adjusted to a concentration of 1.0×10^6 colony forming units (CFU)/mL, as verified by both spectrophotometry (OD600 0.01-0.02 nm) and colony counting.
A pneumonic mouse model was used. 8- to 12-week-old, specific-pathogen free, male or female BALB/c mice, with 25-35 g in weight, are used for the study Animals have free access to food and water except during experimental procedures. All studies are performed in accordance with the ethical guidelines for the care and use of laboratory animals, and the protocol is approved by an independent ethical commission.
For inoculation, fresh inocula are prepared for each experiment from frozen stocks of the two A. nosocomialis isolates (1204194 and 1461911 IHMA). Broth cultures of freshly plated A. nosocomialis bacteria are grown to logarithmic phase overnight to an absorbance of 0.3 at 630 nm and diluted to 10^7 CFU/ml in saline. Mice are anesthetized by intraperitoneal (i.p.) injection of 12.5 mg/kg (5 μl) xylazine and 80 mg/kg (25 μl) ketamine and then inoculated intranasally with 0.05 ml of this bacterial suspension. […]

A further experiment has as its system A. junii 1397597. Kind of experiment: Checkerboard fusidic acid (FD) and colistin sulfate (CS), MIC/FIC and MBC/FBC. The class given is cell-based, Acinetobacter junii. The protocol:
Checkerboard assays between fusidic acid (FD) and colistin sulfate (CS) with a bacterial load 5(1-10)*10^5 CFU/ml in cationic adapted Mueller Hinton broth (CAMHB). • a. Antimicrobial stock solutions were prepared using sterile distilled water; • b. CS was added along the ordinate; FD was added along the abscissa to 96 well, flat bottom, polystyrene panels with no treatment. Colistin alone was tested in triplicates; • c. Serial 2-fold dilutions starting with 640 […] CS and 640 μg/ml FD were made; 15 μl volume of the serial dilutions were added for each agent to the appropriate wells—final volume at 30 μl; • d. For each agent tested alone an additional 15 μl media was added to the well. 30 μl were added in control wells where none of the agent was tested. The negative control well contains 150 μl media without any additions; • e. From an overnight bacterial culture in tryptic soy broth, 100 μL was added to 10 mL of fresh tryptic soy broth. This was then incubated at 37° C. for 1.5 hour at 180 rpm; • f. Bacteria in 120 μl CAMHB were added to each well (end concentration 5(1-10)*10^5 CFU/ml); • g. Plates were incubated at 37° C. in an ambient air incubator for 24 h • h. Turbidity at OD600 is determined with a plate photometer • i. By using a one-time inoculator 3 μl from each well of the 96-well plate were transferred to three blood agar plates. The plates were incubated over night at 37° C. in an ambient air incubator; • j. MIC values are defined as lowest concentration which restricts bacterial growth to OD600≤0.1; • k. MBC values were determined by visual reading the lowest concentration which inhibits 99.9% of the growth of bacteria in the wells; • l. Determination of the fractional inhibitory concentration (FIC) index and fractional bactericidal concentration (FBC) index and characterization of antimicrobial interactions was assessed;
FIC calculation was carried out as: (MIC of drug A, tested in combination)/(MIC of drug A, tested alone)+(MIC of drug B, tested in combination)/(MIC of drug B, tested alone). FBC calculation was carried out just as well;
Interactive categories were calculated from checkerboard analysis using MIC results from testing each agent alone and MIC results from the combination wells adjacent to the wells with growth in them.
Determination of the fractional inhibitory concentration (FIC) index and fractional bactericidal concentration (FBC) index and characterization of antimicrobial interactions was assessed:
(ii) Indifference; FIC/FBC>0.5 to <4.0
(iii) Antagonism; FIC/FBC≥4.0
a. Acinetobacter junii 1391597 (IHMA), colistin resistant (CS 2/2-2/8)

Like-named read-outs stand apart in the source and are kept apart here. Bridge positions count the residues as written; N and C are the ends. Square brackets hold non-standard residues; d marks the D form. Peptide text beside a SMILES is read from it. * marks the point of attachment. Heptanoyl(5-Me) = CCC(C)CCCC(=O)*; Dab = NCC[C@H](N)C(=O)O

A word on the MBC: it is the smallest concentration meeting the test's criterion for killing. As to `CCC(C)CCCC(=O)N[C@@H](CCN)C(=O)N[C@H](C(=O)N[C@@H](CCN)C(=O)N[C@H]1CCNC(=O)[C@H]([C@@H](C)O)NC(=O)[C@H](CCN)NC(=O)[C@H](CCN)NC(=O)[C@H](CC(C)C)NC(=O)[C@@H](CC(C)C)NC(=O)[C@H](CCN)NC1=O)[C@@H](C)O` (stereo partly drawn) [CS, colistin sulphate] ({Heptanoyl(5-Me)}-[Dab]T[Dab][Dab][Dab][dL]L[Dab][Dab]T; lactam 4-C), in experiment [1], the “mice that survive until day 3” value is given as 0/3. Further, the MIC in the experiment on A. junii 1397597 (A. junii 1397597, agent alone, CAMHB, 1*10^6 CFU/ml, 24 h) was determined as 2 mg/1l; in the experiment on A. junii 1397597 (Acinetobacter junii, 1397597, organism list of Example 3, repeated determinations, read-out: Colistin CS MIC), 2 µg/mL. Also, the minimum bactericidal concentration (MBC) with A. junii 1397597 (Acinetobacter junii, 1397597, A. junii 1397597, agent alone, CAMHB, 1*10^6 CFU/ml) is 2 µg/mL.

These data come from patent US20220016200A1, “PHARMACEUTICAL COMPOSITION FOR THE TREATMENT OF CYSTIC FIBROSIS” (GALENUS G.H. AG, priority 2018, published 2022).
